Measured values reported in the METLIN SMRT retention time set (Domingo-Almenara et al. 2019).

Experiment: gradient 5% acetonitrile 3 min, to 50% in 2 min, to 85% in 15 min, held 3 min, 100 µL/min
Details: column: Zorbax Extend-C18 2.1 x 50 mm; eluents: water / acetonitrile, 0.1% formic acid
Procedure, shortened: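 Data were gathered over 3 months by HPLC coupled to a quadrupole time-of-flight mass spectrometer, operated in positive and negative ionization mode. Mixtures of ~100 pure standards ran on a Zorbax Extend-C18 column (2.1 × 50 mm, 1.8 μm) at 100 μL/min, with water and acetonitrile each containing 0.1% formic acid and dead and dwell volumes of 40 μL and 900 μL. Retention time was read from adduct peaks picked by computer and checked manually.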

SMILES	RP-LC retention time [s]
Cc1cccc(NC(=O)C2CC(=O)N(c3n[nH]c4cccc(F)c34)C2)c1C (stereo not drawn)	770
COc1ccc(CCc2nc3cc(-c4c(C)noc4C)ccc3n2C[C@H](C)N2CCOCC2)cc1Cl	742
N#Cc1ccc(S(=O)(=O)N2CCC(Cc3nc(-c4ccncc4)n[nH]3)C2)cc1 (stereo not drawn)	620
CCc1noc(NC(C)=O)c1-c1ccc(OC)c(S(=O)(=O)NCc2ccccc2)c1	766
COc1ccccc1NC(=O)C1CC(=O)N(CCc2c[nH]c3ccc(Cl)cc23)C1 (stereo not drawn)	829
Cc1[nH]c(C(=O)N2CCCC(C(=O)NCc3ccc4c(c3)OCO4)C2)c(C)c1C(=O)OC(C)C (stereo not drawn)	842
Cc1ccccc1-c1nc2cnccn2c1NCCC(=O)NCc1ccc(F)c(Cl)c1	714
Cc1nn2c(CNS(=O)(=O)c3ccc(F)c(Cl)c3)c(-c3ccccc3)nc2s1	942
COc1ccc(-c2noc(C3CCCN3C(=O)Nc3ccc(C)cc3)n2)cc1 (stereo not drawn)	830
COc1ccc(NC(=O)Cn2c(C)cc(-c3nnc(-c4ccco4)o3)c2C)cc1Cl	903
COc1ccccc1NC(=O)N1CCC(CNC(=O)c2ccc(Br)o2)CC1	744
CNS(=O)(=O)c1cccnc1Nc1ccc(F)cc1	863
Cc1cc(Cl)ccc1S(=O)(=O)N1CCC(OCc2noc(C3CCCO3)n2)CC1 (stereo not drawn)	1030
COC(=O)c1ccc(-c2nc3cnccn3c2Nc2ccc(C)c(Cl)c2)cc1	1050
COc1ccc(-c2nc3ncccn3c2Nc2ccc(C)c(C)c2)cc1	784
Cc1ccc2c(c1)N(S(C)(=O)=O)CCC(C(=O)NC1CCCCCC1)O2 (stereo not drawn)	957
CCc1nn(CC)c(=O)c2cc(S(=O)(=O)NCc3cccc(Cl)c3)cn12	982
O=C(c1cc(-c2cccnc2)n[nH]1)N1CCN(C(=O)C2CCC2)CC1	581
Cc1ccc(N2C(=O)CCS2(=O)=O)cc1S(=O)(=O)N1c2ccccc2CC1C (stereo not drawn)	867
CCn1c(=O)c2cc(C(=O)Nc3cccc(C(F)(F)F)c3)nn2c2ccccc21	1080

SMILES	RP-LC retention time [s]
O=C(CCc1nc(N2CCCCC2)c2c(-c3ccccc3)noc2n1)NC1CC1	909
CC1CCCN(CCCNC(=O)CCCn2c(=O)c3cccn3c3ccc(Br)cc32)C1 (stereo not drawn)	677
CCCN(CC1CC1)C(=O)[C@@H]1COCC(=O)N1Cc1ccccc1	818
COc1ccc(C(=O)Nc2nnc(SCc3nnc(-c4ccccc4C)o3)s2)cc1OC	898
Cc1ccccc1S(=O)(=O)N1CCC2(CC1)CC(C)(O)CCO2 (stereo not drawn)	778
Cc1ccc2c(C)nc(NC3=NCN(Cc4ccccc4)CN3)nc2c1	772
COc1ccccc1-c1noc(Cn2c(=O)n(CCc3ccccc3)c(=O)c3sccc32)n1	1030
CCCN(CCC)C(=O)Cn1c(C2CCCN2C(=O)CC)nc2ccccc21 (stereo not drawn)	660
CC(=O)N1c2ccc(S(=O)(=O)N3CCOCC3)cc2CC1C(=O)N1CCCCC1 (stereo not drawn)	697
CCn1cnc(S(=O)(=O)N2CCCC(C(=O)Nc3ccc(Br)c(C)c3)C2)c1 (stereo not drawn)	889
CCN(CC)C(=O)c1ccc2c(c1)N(CC(=O)N1CCOCC1)C(=O)CS2	642
O=C(N[C@H]1C[C@@H]2C[C@H]1CN2S(=O)(=O)c1ccc2c(c1)CCC2)c1cccs1	943
CCn1nnc2ccc(-c3noc(-c4ccccc4)n3)cc21	1040
CC(C)c1ccc(Sc2ccc(N3CCC(C(=O)NCCN(C)C)CC3)nn2)cc1	658
Cc1cccc(NC(=O)CN2C(=O)CC(C)S(=O)(=O)c3ccccc32)c1C (stereo not drawn)	789
Cc1cc(CS(=O)(=O)c2ccccc2)cc(OCc2ccc(CN3CCC[C@@H]3CO)cc2)c1	788
O=C(c1ccc(OCC2CCCN2C(=O)COc2ccc(F)cc2)cc1)N1CCOCC1 (stereo not drawn)	778
CCOc1ccc(NC(=O)Cn2cccc2-c2nnc(C3CCC3)o2)cc1	912
COc1cc(C)c(Cl)cc1S(=O)(=O)Nc1ccc(-c2cn3ccc(C)nc3n2)cc1	700
Cc1c(-c2noc(-c3cccc(F)c3)n2)nnn1-c1ccc(F)cc1	1100

SMILES	RP-LC retention time [s]
CCCS(=O)(=O)N1CC(=O)N(c2ccc(F)cc2F)C(C)(C(=O)NC2CCCCCC2)C1 (stereo not drawn)	979
CN1C(=O)COc2ccc(-c3csc(NC(=O)c4cccc(Br)c4)n3)cc21	1060
COc1ccc(-c2noc(-c3nc(-c4ccccc4F)no3)n2)cc1OC	1110
Cc1nc(-c2noc(-c3ccc(F)cc3)n2)cn1CC(=O)Nc1ccc(Cl)cc1	922
Cc1nnc([C@@H]2CC(F)(F)CN2C(=O)COc2ccccc2)o1	667
CCc1ccc(CNC(=O)c2cn3ccccc3n2)cc1	757
COc1ccc(-c2noc(Cn3ccn(-c4ccccc4OC)c(=O)c3=O)n2)cc1	623
CCC1Oc2ccc(S(=O)(=O)N3CCC(C(=O)Nc4cccc(OC)c4)CC3)cc2NC1=O (stereo not drawn)	854
O=C(Cn1c(=O)c2cccn2c2ccc(F)cc21)NCCN1CCOCC1	592
O=C(Nc1ccccc1F)N1C[C@H]2C[C@@H](C1)c1cccc(=O)n1C2	610
O=C(COc1ccccc1F)NC1CC(=O)N(C2CC2)C1 (stereo not drawn)	611
Cc1cccc(CNC2=NCCNC23CCN(S(=O)(=O)c2ccc4c(c2)CCCC4)CC3)c1	854
c1cc(-c2noc(-c3cccnc3)n2)cc(-c2ccn[nH]2)c1	777
Cn1ncn2cc(S(=O)(=O)NCc3ccccc3Cl)cc2c1=O	792
CC(C)NC(=O)Nc1cccnc1N1CCOCC1	863
CCN(CC)c1ncc2c(n1)CCC(C(=O)NCc1ccc(C(C)C)cc1)C2 (stereo not drawn)	821
O=C(Cn1nc2ccc(C(=O)NCc3ccccc3)cn2c1=O)NCCC1=CCCCC1	811
N#Cc1ccc(CN2CCC(F)(F)C(COCc3cccnc3)C2)cc1 (stereo not drawn)	575
CCn1c(CCc2cccc(NS(=O)(=O)c3cnc[nH]3)c2)nc2ccccc21	524

Now from value to molecule:

RP-LC retention time [s]	SMILES
651	COc1cccc(/C=C/c2nc(C#N)c(NCCCN(C)C)o2)c1
1130	Cc1ccccc1-c1nc(C2CCN(S(=O)(=O)c3ccc4c(c3)CCC4)CC2)no1
973	CCC(C)NC(=O)c1cnn(-c2cc(-c3nc(C4CC4)no3)ccn2)c1C (stereo not drawn)
603	COc1ccc(S(=O)(=O)N2CCN(c3ccc(Nc4ccccn4)nn3)CC2)cc1C
711	COCc1noc([C@@H]2CC(F)(F)CN2C(=O)C(C)C)n1
725	O=C(Cc1ccc(NC(=O)c2ccsc2)cc1)NCc1cccs1
599	COC(=O)Nc1ccc(S(=O)(=O)Nc2nc(C)cc(C)n2)cc1
929	COC(=O)c1cc(S(=O)(=O)N2CCCC2C(=O)N2CCN(c3cccc(Cl)c3)CC2)cn1C (stereo not drawn)
617	COc1cc(C(=O)NCC(=O)Nc2nc3ccccc3[nH]2)cc(OC)c1OC
1180	COc1ccccc1NC(=O)c1oc2ccccc2c1NC(=O)c1c(F)cccc1Cl
797	COC(=O)c1cccc(C(=O)N2CCc3ccccc32)n1
904	COc1ccc(S(=O)(=O)NCc2ccc3c(c2)CCN3C(=O)c2ccccc2)cc1
719	CCCN(C)c1nccn2c(=O)n(CC(=O)Nc3ccc(C)cc3F)nc12
856	Cc1nc(-c2noc(-c3cccc(F)c3)n2)cn1CC(=O)Nc1ccccc1
1170	COc1ccc(CN2C=C(C(=O)OCc3noc(-c4ccc(C)cc4)n3)C(C)=NS2(=O)=O)cc1
960	Cc1cccc(-n2c(=O)c3c(cc(C)n3C)n(CC(=O)Nc3cc(Cl)ccc3C)c2=O)c1
811	Cc1noc(C)c1CNC(=O)C(C)Oc1ccc(Cl)cc1 (stereo not drawn)
740	Cc1cc(NC(=O)NCCn2nnc3cc(C(=O)N4CCCC4)ccc32)ccc1Br
735	O=C(NCC1CCOCC1)Nc1cccc(Cl)c1
901	Cc1ccc(-n2nc(N3CCCC(C(=O)NCc4ccccc4)C3)ccc2=O)cc1Cl (stereo not drawn)
832	CC(C)CN1C(=O)c2cccn2CC1CNC(=O)C1(c2ccccc2)CC1 (stereo not drawn)
771	CN(C(=O)CC(=O)Nc1ccc2nc3n(c(=O)c2c1)CCCCC3)c1cccc(C(F)(F)F)c1
729	COC(=O)Cn1c(C)cc(=O)n2nc(-c3ccccc3Cl)nc12
1090	Cc1oc(-c2ccccc2)nc1Cc1noc(COc2ccccc2)n1
666	COc1ccc(CN(Cc2ccccc2)Cc2cc(=O)n3ccccc3n2)cc1
807	COc1ccc(CC(=O)Nc2ccc3c(c2)Sc2ncccc2C(=O)N3C)cc1Cl
724	CCN(CCN(C)C)C(=O)CN1C(=O)C(Oc2ccc(F)cc2)C12CCCCC2 (stereo not drawn)
1130	Cc1ccc(Sc2nccnc2N2CCCC(C(=O)NCc3ccc(F)cc3F)C2)cc1 (stereo not drawn)
782	Cc1cccc(CC(=O)N2CCCn3cc(-c4cccc(C#N)c4)nc32)c1
